Experiments:
[1] = The drug is tested on WLS-007 corresponding to human gut metagenome with ENA study accession number: PRJEB37062 and ENA sample accession number: ERS12561742 for biotransformation under anaerobic condition. The drug concentrations were measured over 9 timepoints collected between 0 and 24 hours of incubation by liquid-chromatography-coupled mass spectrometry (LC–MS); conditions: 2 µM
[2] = human gut metagenome, 24 h, 2 µM
[3] = human gut metagenome, 24 h, 2 µM; remark: listed apart in the source
[4] = The drug is tested on WLS-052 corresponding to human gut metagenome with ENA study accession number: PRJEB37062 and ENA sample accession number: ERS12561747 for biotransformation under anaerobic condition. The drug concentrations were measured over 9 timepoints collected between 0 and 24 hours of incubation by liquid-chromatography-coupled mass spectrometry (LC–MS); conditions: 2 µM
[5] = The drug is tested on Z-027 corresponding to metagenome with ENA study accession number: PRJEB37062 and ENA sample accession number: ERS12561826 for biotransformation under anaerobic condition. The drug concentrations were measured over 9 timepoints collected between 0 and 24 hours of incubation by liquid-chromatography-coupled mass spectrometry (LC–MS); conditions: 2 µM
[6] = human gut metagenome, 24 h, 2 µM; remark: listed apart in the source
[7] = human gut metagenome, 24 h, 2 µM; remark: listed apart in the source
[8] = human gut metagenome, 24 h, 2 µM; remark: listed apart in the source
[9] = The drug is tested on Z-024 corresponding to pig gut metagenome with ENA study accession number: PRJEB37062 and ENA sample accession number: ERS12561823 for biotransformation under anaerobic condition. The drug concentrations were measured over 9 timepoints collected between 0 and 24 hours of incubation by liquid-chromatography-coupled mass spectrometry (LC–MS); conditions: 2 µM
[10] = human gut metagenome, 24 h, 2 µM; remark: listed apart in the source
[11] = The drug is tested on Z-005 corresponding to metagenome with ENA study accession number: PRJEB37062 and ENA sample accession number: ERS12561805 for biotransformation under anaerobic condition. The drug concentrations were measured over 9 timepoints collected between 0 and 24 hours of incubation by liquid-chromatography-coupled mass spectrometry (LC–MS); conditions: 2 µM
[12] = The drug is tested on Z-002 corresponding to rabbit gut metagenome with ENA study accession number: PRJEB37062 and ENA sample accession number: ERS12561802 for biotransformation under anaerobic condition. The drug concentrations were measured over 9 timepoints collected between 0 and 24 hours of incubation by liquid-chromatography-coupled mass spectrometry (LC–MS); conditions: 2 µM
[13] = The drug is tested on Z-013 corresponding to rabbit gut metagenome with ENA study accession number: PRJEB37062 and ENA sample accession number: ERS12561813 for biotransformation under anaerobic condition. The drug concentrations were measured over 9 timepoints collected between 0 and 24 hours of incubation by liquid-chromatography-coupled mass spectrometry (LC–MS); conditions: 2 µM
[14] = The drug is tested on Z-022 corresponding to mouse gut metagenome with ENA study accession number: PRJEB37062 and ENA sample accession number: ERS12561821 for biotransformation under anaerobic condition. The drug concentrations were measured over 9 timepoints collected between 0 and 24 hours of incubation by liquid-chromatography-coupled mass spectrometry (LC–MS); conditions: 2 µM
[15] = The drug is tested on WLS-038 corresponding to human gut metagenome with ENA study accession number: PRJEB37062 and ENA sample accession number: ERS12561745 for biotransformation under anaerobic condition. The drug concentrations were measured over 9 timepoints collected between 0 and 24 hours of incubation by liquid-chromatography-coupled mass spectrometry (LC–MS); conditions: 2 µM
[16] = The drug is tested on WLS-027 corresponding to human gut metagenome with ENA study accession number: PRJEB37062 and ENA sample accession number: ERS12561744 for biotransformation under anaerobic condition. The drug concentrations were measured over 9 timepoints collected between 0 and 24 hours of incubation by liquid-chromatography-coupled mass spectrometry (LC–MS); conditions: 2 µM
[17] = The drug is tested on Z-028 corresponding to mouse gut metagenome with ENA study accession number: PRJEB37062 and ENA sample accession number: ERS12561827 for biotransformation under anaerobic condition. The drug concentrations were measured over 9 timepoints collected between 0 and 24 hours of incubation by liquid-chromatography-coupled mass spectrometry (LC–MS); conditions: 2 µM
[18] = The drug is tested on Z-007 corresponding to rat gut metagenome with ENA study accession number: PRJEB37062 and ENA sample accession number: ERS12561807 for biotransformation under anaerobic condition. The drug concentrations were measured over 9 timepoints collected between 0 and 24 hours of incubation by liquid-chromatography-coupled mass spectrometry (LC–MS); conditions: 2 µM
[19] = The drug is tested on Z-025 corresponding to rabbit gut metagenome with ENA study accession number: PRJEB37062 and ENA sample accession number: ERS12561824 for biotransformation under anaerobic condition. The drug concentrations were measured over 9 timepoints collected between 0 and 24 hours of incubation by liquid-chromatography-coupled mass spectrometry (LC–MS); conditions: 2 µM
[20] = human gut metagenome, 24 h, 2 µM; remark: listed apart in the source
Note: call rule not given here.

With `O=C(O)CCc1nc(-c2ccccc2)c(-c2ccccc2)o1` [OXAPROZIN] the “Bacterial Biotransformation” value [1] was “Compound metabolized”, the “Bacterial Biotransformation” value [2] was “Compound metabolized” and the “Bacterial Biotransformation” value [3] was “Compound metabolized”. The “Bacterial Biotransformation” value [4] was “Compound metabolized”, the “Bacterial Biotransformation” value [5] was “Compound metabolized” and the “Bacterial Biotransformation” value [6] was “Compound metabolized”. For the same compound, the “Bacterial Biotransformation” value [7] was “Compound metabolized”, the “Bacterial Biotransformation” value [8] was “Compound metabolized” and the “Bacterial Biotransformation” value [9] was “Compound NOT metabolized”. For the same compound, the “Bacterial Biotransformation” value [10] was “Compound metabolized”, the “Bacterial Biotransformation” value [11] was “Compound metabolized” and the “Bacterial Biotransformation” value [12] was “Compound metabolized”. For the same compound, the “Bacterial Biotransformation” value [13] was “Compound NOT metabolized”, the “Bacterial Biotransformation” value [14] was “Compound metabolized” and the “Bacterial Biotransformation” value [15] was “Compound metabolized”. The “Bacterial Biotransformation” value [16] was “Compound metabolized”, the “Bacterial Biotransformation” value [17] was “Compound NOT metabolized” and the “Bacterial Biotransformation” value [18] was “Compound NOT metabolized”. For the same compound, the “Bacterial Biotransformation” value [19] was “Compound metabolized” and the “Bacterial Biotransformation” value [20] was “Compound metabolized”.

In the case of `CC(C)(C)NC[C@H](O)COc1ccccc1C1CCCC1.CC(C)(C)NC[C@H](O)COc1ccccc1C1CCCC1.O=S(=O)(O)O` [PENBUTOLOL SULFATE], the “Bacterial Biotransformation” value [1] is reported as “Compound metabolized”, the “Bacterial Biotransformation” value [2] is reported as “Compound metabolized” and the “Bacterial Biotransformation” value [3] is reported as “Compound NOT metabolized”. For the same compound, the “Bacterial Biotransformation” value [4] was “Compound metabolized”, the “Bacterial Biotransformation” value [5] was “Compound NOT metabolized” and the “Bacterial Biotransformation” value [6] was “Compound metabolized”. For the same compound, the “Bacterial Biotransformation” value [7] was “Compound metabolized”, the “Bacterial Biotransformation” value [8] was “Compound metabolized” and the “Bacterial Biotransformation” value [9] was “Compound metabolized”. For the same compound, the “Bacterial Biotransformation” value [10] was “Compound metabolized”, the “Bacterial Biotransformation” value [11] was “Compound metabolized” and the “Bacterial Biotransformation” value [12] was “Compound metabolized”. The “Bacterial Biotransformation” value [13] was “Compound NOT metabolized”, the “Bacterial Biotransformation” value [14] was “Compound metabolized” and the “Bacterial Biotransformation” value [15] was “Compound metabolized”. The “Bacterial Biotransformation” value [16] was “Compound metabolized”, the “Bacterial Biotransformation” value [17] was “Compound NOT metabolized” and the “Bacterial Biotransformation” value [18] was “Compound NOT metabolized”. For the same compound, the “Bacterial Biotransformation” value [19] was “Compound NOT metabolized” and the “Bacterial Biotransformation” value [20] was “Compound metabolized”.

With `CCOc1ccc(NC(C)=O)cc1` [PHENACETIN] the “Bacterial Biotransformation” value [1] was “Compound NOT metabolized”, the “Bacterial Biotransformation” value [2] was “Compound NOT metabolized” and the “Bacterial Biotransformation” value [3] was “Compound NOT metabolized”. The “Bacterial Biotransformation” value [4] was “Compound NOT metabolized”, the “Bacterial Biotransformation” value [5] was “Compound NOT metabolized” and the “Bacterial Biotransformation” value [6] was “Compound NOT metabolized”. For the same compound, the “Bacterial Biotransformation” value [7] was “Compound NOT metabolized”, the “Bacterial Biotransformation” value [8] was “Compound NOT metabolized” and the “Bacterial Biotransformation” value [9] was “Compound NOT metabolized”. For the same compound, the “Bacterial Biotransformation” value [10] was “Compound NOT metabolized”, the “Bacterial Biotransformation” value [11] was “Compound NOT metabolized” and the “Bacterial Biotransformation” value [12] was “Compound NOT metabolized”. For the same compound, the “Bacterial Biotransformation” value [13] was “Compound NOT metabolized”, the “Bacterial Biotransformation” value [14] was “Compound NOT metabolized” and the “Bacterial Biotransformation” value [15] was “Compound NOT metabolized”. The “Bacterial Biotransformation” value [16] was “Compound NOT metabolized”, the “Bacterial Biotransformation” value [17] was “Compound NOT metabolized” and the “Bacterial Biotransformation” value [18] was “Compound NOT metabolized”. For the same compound, the “Bacterial Biotransformation” value [19] was “Compound NOT metabolized” and the “Bacterial Biotransformation” value [20] was “Compound NOT metabolized”.

In the case of `Nc1ccc(/N=N/c2ccccc2)c(N)n1` [PHENAZOPYRIDINE], the “Bacterial Biotransformation” value [1] is reported as “Compound metabolized”, the “Bacterial Biotransformation” value [2] is reported as “Compound metabolized” and the “Bacterial Biotransformation” value [3] is reported as “Compound metabolized”. The “Bacterial Biotransformation” value [4] was “Compound metabolized”, the “Bacterial Biotransformation” value [5] was “Compound metabolized” and the “Bacterial Biotransformation” value [6] was “Compound metabolized”. For the same compound, the “Bacterial Biotransformation” value [7] was “Compound metabolized”, the “Bacterial Biotransformation” value [8] was “Compound metabolized” and the “Bacterial Biotransformation” value [9] was “Compound metabolized”. For the same compound, the “Bacterial Biotransformation” value [10] was “Compound NOT metabolized”, the “Bacterial Biotransformation” value [11] was “Compound metabolized” and the “Bacterial Biotransformation” value [12] was “Compound metabolized”. The “Bacterial Biotransformation” value [13] was “Compound metabolized”, the “Bacterial Biotransformation” value [14] was “Compound metabolized” and the “Bacterial Biotransformation” value [15] was “Compound metabolized”. The “Bacterial Biotransformation” value [16] was “Compound metabolized”, the “Bacterial Biotransformation” value [17] was “Compound metabolized” and the “Bacterial Biotransformation” value [18] was “Compound metabolized”. For the same compound, the “Bacterial Biotransformation” value [19] was “Compound metabolized” and the “Bacterial Biotransformation” value [20] was “Compound metabolized”.

In the case of `CC(C(=O)O)c1ccc2c(c1)Cc1cccnc1O2` (stereo not given) [PRANOPROFEN], the “Bacterial Biotransformation” value [1] is reported as “Compound metabolized”, the “Bacterial Biotransformation” value [2] is reported as “Compound metabolized” and the “Bacterial Biotransformation” value [3] is reported as “Compound metabolized”. The “Bacterial Biotransformation” value [4] was “Compound metabolized”, the “Bacterial Biotransformation” value [5] was “Compound metabolized” and the “Bacterial Biotransformation” value [6] was “Compound metabolized”. For the same compound, the “Bacterial Biotransformation” value [7] was “Compound metabolized”, the “Bacterial Biotransformation” value [8] was “Compound metabolized” and the “Bacterial Biotransformation” value [9] was “Compound NOT metabolized”. For the same compound, the “Bacterial Biotransformation” value [10] was “Compound metabolized”, the “Bacterial Biotransformation” value [11] was “Compound metabolized” and the “Bacterial Biotransformation” value [12] was “Compound metabolized”. For the same compound, the “Bacterial Biotransformation” value [13] was “Compound metabolized”, the “Bacterial Biotransformation” value [14] was “Compound metabolized” and the “Bacterial Biotransformation” value [15] was “Compound metabolized”. The “Bacterial Biotransformation” value [16] was “Compound metabolized”, the “Bacterial Biotransformation” value [17] was “Compound metabolized” and the “Bacterial Biotransformation” value [18] was “Compound NOT metabolized”. The “Bacterial Biotransformation” value [19] was “Compound metabolized” and the “Bacterial Biotransformation” value [20] was “Compound metabolized”.

Source: ChEMBL document CHEMBL5724914, “Linking interpersonal differences in gut microbiota composition and drug biotransformation activity” (2024)
